Results taken from patent publication US11992517B2, “Compositions and methods for promoting the mineralization of biological tissue” (NEW YORK SOCIETY FOR THE RUPTURED AND CRIPPLED MAINTAINING …, priority 2013, dated 2024).

Legend:
ANKH = experiment: RT-PCR of ANK after IL-1β treatment; type: cell-based, bovine; conditions: IL-1β 0.01 and 2 ng/ml; naïve cells and TNAP-infected BNP cells; day 3; FIG. 23
Method: (§1) Cells from Example 2 were grown in mineralization medium in the presence or absence of a low dose of […] (0.01 ng/ml) or a high dose (2 ng/ml) (R&D Systems). Cells were analyzed by Alizarin Red staining at 7 and 10 days as previously described. RT-PCR analysis of ANK and ENPP was also performed as previously described, using primers specific for ANKH and ENPP1.

BNP cells = experiment: Effect of IL-1β on mineralization, Alizarin Red staining; type: cell-based, bovine; conditions: IL-1β 0.01 and 2 ng/ml, 7 and 10 days
Method: as §1

ENPP1 = experiment: RT-PCR of ENPP after IL-1β treatment; type: cell-based, bovine; conditions: IL-1β 0.01 and 2 ng/ml; naïve cells and TNAP-infected BNP cells; day 3; FIG. 23
Method: as §1

bovine NP cells = experiment: Effect of TNF-α on mineralization, Alizarin Red and von Kossa staining; type: cell-based
Method: The cells from Example 2 (TNAP infected and naïve) were grown in high density cultures in a medium comprising DMEM high glucose (4.5 g/L) plus 1% PenStrep, and 10% FBS, and 50 μ/ml ascorbic acid, and 5 mM of β-glycerophosphate (mineralization medium). Some cells were also stimulated with 10 ng/mL of hfTNF-α.
The cells were stained with Alizarin Red and von Kossa stain after 7, 14, and 21 days.

Substance: IL-1β: interleukin 1β (R&D Systems) added at 0.01 or 2 ng/ml
- ANK transcripts (ANKH): dose-dependent decrease
- Alizarin Red staining of NP cells transduced with LacZ (BNP cells): no observable change
- calcium staining with Alizarin Red of TNAP-infected BNP cell cultures (BNP cells; mineralization medium, FIGS. 21, 22): dose-dependent increase
- ENPP transcripts (ENPP1): dose-dependent decrease

Substance: TNF-α
- mineralization of NP cells stimulated with TNF-α only (bovine NP cells; 10 ng/mL TNF-α, cells without TNAP): did not show mineralization
- staining of TNAP infected cells stimulated with TNF-α (bovine NP cells; 10 ng/mL TNF-α, versus unstimulated TNAP infected cells, FIG. 10): darker
- more Alizarin Red staining than TNAP alone (bovine NP cells; TNAP overexpressing cells stimulated with TNF-α, average over three weeks, FIG. 11): 45%
